Laboratory results from patent publication EP2468303A1, “Functionalized nucleic acids and particles comprising them for the treatment of HIV infections” (priority 2010, dated 2012).

Test system: pNL4.3 virus
Assay: Time-of-addition experiment in single-round infection assay
Type: cell-based, HIV-1
Settings: Hela P4 cells, 100 nM, whatever the time of addition post-infection
Source text: Antiviral activity was quantified using the above-described CPRG assay.

In the case of Cc1nnc(C(=O)NC(C)(C)c2nc(C(=O)NCc3ccc(F)cc3)c(O)c(=O)n2C)o1 [raltegravir], the viral replication blocked is reported as < 100%.
